Experimental data: patent US11299487B2, “Compounds and compositions as modulators of TLR signaling” (Neuropore Therapies, Inc., priority 2019, dated 2022)
Read-outs that look alike come from different tables or passages of the source.

What was measured:
Format in all cases: cell-based
human TLR2 [1] = molecular target: T1, human TLR2 (Homo sapiens, UniProt O60603); experiment: HEK-Blue hTLR2 antagonism assay (SEAP reporter) with agonist Pam2CSK4 (TLR2/6 agonist); settings: HEK-Blue hTLR2 cells, ~3×EC50 Pam2CSK4, 18 h, SEAP OD 655 nm, 8-point dilutions
T1 construct: host or cells: HEK-Blue hTLR2 (HEK-293)

human TLR9 = molecular target: T2, human TLR9 (Homo sapiens, UniProt Q9NR96); experiment: HEK-Blue hTLR9 assay (SEAP reporter) with agonist ODN 2006; settings: HEK-Blue hTLR9 cells, ~3×EC50 ODN 2006, 18 h, exact values 8-point dilutions, approximate (~ or <) 4-point dilutions, read-out: ~IC50 (μM) with ODN2006
T2 construct: host or cells: HEK-Blue hTLR9 (HEK-293)
T2 sequence (Q9NR96 26-1032): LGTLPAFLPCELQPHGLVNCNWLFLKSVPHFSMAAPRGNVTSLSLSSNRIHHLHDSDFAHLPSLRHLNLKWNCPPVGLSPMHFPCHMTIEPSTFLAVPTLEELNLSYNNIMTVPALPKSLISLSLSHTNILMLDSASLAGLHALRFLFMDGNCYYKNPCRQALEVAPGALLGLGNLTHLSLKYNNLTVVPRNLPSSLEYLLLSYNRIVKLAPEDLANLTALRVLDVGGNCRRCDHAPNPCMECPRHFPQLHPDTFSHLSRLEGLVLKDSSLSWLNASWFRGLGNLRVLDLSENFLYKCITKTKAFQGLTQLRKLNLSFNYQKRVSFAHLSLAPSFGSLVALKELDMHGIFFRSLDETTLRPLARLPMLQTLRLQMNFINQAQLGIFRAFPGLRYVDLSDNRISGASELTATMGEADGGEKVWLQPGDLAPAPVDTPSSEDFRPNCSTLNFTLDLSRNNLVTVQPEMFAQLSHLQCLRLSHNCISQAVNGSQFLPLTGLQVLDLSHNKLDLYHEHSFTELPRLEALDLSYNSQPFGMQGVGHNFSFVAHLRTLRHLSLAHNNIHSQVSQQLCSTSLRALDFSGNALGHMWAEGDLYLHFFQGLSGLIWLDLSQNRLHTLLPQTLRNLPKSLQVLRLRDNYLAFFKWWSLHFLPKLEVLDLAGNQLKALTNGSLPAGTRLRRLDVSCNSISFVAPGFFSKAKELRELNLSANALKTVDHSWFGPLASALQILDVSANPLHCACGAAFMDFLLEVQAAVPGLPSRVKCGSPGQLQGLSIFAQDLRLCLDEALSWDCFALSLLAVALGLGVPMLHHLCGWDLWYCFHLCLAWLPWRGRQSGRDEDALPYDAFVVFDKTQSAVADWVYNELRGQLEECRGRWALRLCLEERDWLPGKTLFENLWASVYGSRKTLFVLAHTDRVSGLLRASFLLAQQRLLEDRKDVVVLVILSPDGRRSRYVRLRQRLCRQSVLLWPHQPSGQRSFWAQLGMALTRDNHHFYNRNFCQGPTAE
Protocol: Synthetic ODNs (ODN 2006 (ODN7909), class B CpG oligonucleotide, TLR9 agonist) was obtained from InvivoGen and was dissolved in endotoxin-free water to a concentration 500 μM, vortexed until complete solubilization, and stored in aliquots at −20° C. Prior to addition to cells, an aliquot of the dissolved ligand was vortexed shortly and then was diluted in medium to 50 μM. The EC50 of the agonist for each assay run was determined by using 3-fold dilutions from the starting concentration 10 μM.
Test compounds were solubilized fresh to 10-20 mM stocks in DMSO and sonicated for 5-10 minutes in a water bath sonicator. Serial dilutions were prepared in DMSO, and then diluted in medium. The final concentration of DMSO used in the assay was 1%.
HEK-Blue hTLR9 reporter cells (InvivoGen) are HEK-293 cells stably expressing both the human TLR9 gene and a secreted embryonic alkaline phosphatase (SEAP) reporter construct downstream of NFκB promotor sites. HEK-Blue hTLR9 cells were cultured according to manufacturer's protocol using Dulbecco's Modified Eagle Medium (DMEM; Gibco) containing 1× GlutaMax (Gibco), 10% heat-inactivated Fetal Bovine Serum (Gibco), Pen-Strep (50 U/mL penicillin, 50 μg/mL streptomycin, Gibco), 100 μg/mL Normocin (InvivoGen), and the selective antibiotics, 10 μg/mL Blasticidin (InvivoGen), and 100 μg/mL Zeocin (InvivoGen). Quanti-Blue reagent (InvivoGen) for detection and quantification of secreted alkaline phosphatase was dissolved in 100 mL of endotoxin-free water, warmed to 37° C. for 30 minutes and then filtered using a 0.2 μm membrane.
On day 1, 50 μL of each test compound dilution in duplicates or a vehicle control was added to each well of a 96-well plate followed by addition of 150 μL of HEK-Blue hTLR9 cell suspension (1×10^5 cells/well) and incubated at 37° C./5% CO2 for 2 h. Next, 50 μL of an approximate 3×EC50 concentration of TLR9 agonist, ODN 2006, was added to the wells containing test compounds or the vehicle control. The plates were then incubated at 37° C./5% CO2 for 18 h. For each assay run, vehicle-treated HEK-Blue hTLR9 cells were treated with serial dilutions of agonist to determine EC50 values for the respective run.
On day 2, secreted alkaline phosphatase (SEAP) activity was detected in cell culture supernatants. In brief, 30 μL was collected from each well and transferred to a 96-well plate. Next, 200 μL of Quanti-Blue detection reagent was added to each well. Plates were incubated at 37° C. for 60 min. and SEAP activity was assessed by spectrophotometer OD reading at 655 nm. Table A and Table B show the activities of the compounds tested in HEK-Blue hTLR9 cells against ODN 2006. The activities of the compounds against ODN 2006 are presented as IC50 values which were defined as concentrations of the compounds where percent inhibition of the signal induced by agonist is equal to 50. Exact IC50 values were calculated based on 8-point dilutions for each compound. Approximate IC50 values (˜ or <) were calculated based on 4-point dilutions for each compound.

human TLR2 [2] = molecular target: T1, human TLR2; experiment: HEK-Blue hTLR2 antagonism assay (SEAP reporter) with agonist Pam3CSK4 (TLR1/2 agonist); settings: HEK-Blue hTLR2 cells, ~3×EC50 Pam3CSK4, 18 h, SEAP OD 655 nm, 8-point dilutions

T1 sequence (O60603 21-784): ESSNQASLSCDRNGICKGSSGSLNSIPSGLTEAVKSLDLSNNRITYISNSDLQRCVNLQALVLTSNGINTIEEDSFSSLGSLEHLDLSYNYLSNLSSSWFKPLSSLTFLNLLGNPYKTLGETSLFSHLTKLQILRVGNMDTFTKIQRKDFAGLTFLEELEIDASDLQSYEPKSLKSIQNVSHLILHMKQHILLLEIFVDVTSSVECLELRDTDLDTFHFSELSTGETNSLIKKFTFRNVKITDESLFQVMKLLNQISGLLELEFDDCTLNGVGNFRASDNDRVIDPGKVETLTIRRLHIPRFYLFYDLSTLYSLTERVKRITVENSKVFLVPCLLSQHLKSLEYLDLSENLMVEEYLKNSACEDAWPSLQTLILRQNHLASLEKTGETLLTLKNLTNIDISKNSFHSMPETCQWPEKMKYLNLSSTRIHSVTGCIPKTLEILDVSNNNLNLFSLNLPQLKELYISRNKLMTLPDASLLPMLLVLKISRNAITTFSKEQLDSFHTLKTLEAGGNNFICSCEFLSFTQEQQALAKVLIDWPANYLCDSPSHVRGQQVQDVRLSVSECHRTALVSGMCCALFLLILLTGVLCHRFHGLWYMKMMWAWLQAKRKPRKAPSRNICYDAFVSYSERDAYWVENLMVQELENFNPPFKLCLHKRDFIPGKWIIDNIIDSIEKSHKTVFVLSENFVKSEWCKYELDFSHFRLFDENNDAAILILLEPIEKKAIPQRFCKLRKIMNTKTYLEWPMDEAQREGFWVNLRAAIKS

SMILES	IC50 (human TLR2 [1]; Table A) [µM]	IC50 (human TLR9; Table A) [µM]	IC50 (human TLR2 [2]; Table A) [µM]	IC50 (human TLR2 [1]; Table B) [µM]	IC50 (human TLR9; Table B) [µM]	IC50 (human TLR2 [2]; Table B) [µM]
O=Cc1cc(-c2csc(-c3ccc(N4CCCC4)cc3)n2)cc(F)c1O [Compound A57, 3-fluoro-2-hydroxy-5-(2-(4-(pyrrolidin-1-yl)phenyl)thiazol-4-yl)benzaldehyde]	1	0.3	0.3	–	–	–
O=Cc1cc(-c2nc(-c3ccccc3)ns2)cc(F)c1O [Compound A95, 3-fluoro-2-hydroxy-5-(3-phenyl-1,2,4-thiadiazol-5-yl)benzaldehyde]	3	~1.4	2.3	–	–	–
O=Cc1cc(C#Cc2ccc(N3CCOCC3)cc2)cc(F)c1O [Compound B3, 3-fluoro-2-hydroxy-5-((4-morpholinophenyl)ethynyl)benzaldehyde]	–	–	–	3.7	< 1.2	2.2
COc1cc(-c2cnn(Cc3ccccn3)c2)cc(C=O)c1O [Compound A8, 2-hydroxy-3-methoxy-5-(1-(pyridin-2-ylmethyl)-1H-pyrazol-4-yl)benzaldehyde]	85.5	> 33	> 100	–	–	–
O=Cc1cc(-n2cc(-c3cccc(N4CCCC4)c3)nn2)cc(F)c1O [Compound A44, 3-fluoro-2-hydroxy-5-(4-(3-(pyrrolidin-1-yl)phenyl)-1H-1,2,3-triazol-1-yl)benzaldehyde]	1	~1.2	0.7	–	–	–
O=Cc1cc(C(=O)Nc2ccc(N3CC4(CCC4)C3)cc2)cc(F)c1O [Compound B77, N-(4-(2-azaspiro[3.3]heptan-2-yl)phenyl)-3-fluoro-5-formyl-4-hydroxybenzamide]	–	–	–	0.6	< 1.2	0.3
O=Cc1cc(-c2nc(-c3ccccc3)n[nH]2)cc(F)c1O [Compound A96, 3-fluoro-2-hydroxy-5-(3-phenyl-1H-1,2,4-triazol-5-yl)benzaldehyde]	12.1	~6.3	8.8	–	–	–
O=Cc1cc(S(=O)(=O)Nc2ccc(N3CCCC3)cc2)cc(F)c1O [Compound B17, 3-fluoro-5-formyl-4-hydroxy-N-(4-(pyrrolidin-1-yl)phenyl)benzenesulfonamide]	–	–	–	12.7	~2.9	6.6
